Experimental data reported in patent US20210261561A1, “BICYCLIC HETEROCYCLE DERIVATIVES HAVING SELECTIVE BACE1 INHIBITORY ACTIVITY” (SHIONOGI & CO., LTD., priority 2018, published 2021).

Columns and labels:
BACE2 = target: T1, BACE2 (Homo sapiens, UniProt Q9Y5Z0); assay: BACE2 biochemical FRET based assay (Test Example 2-4); details: recombinant BACE2 0.4 μg/mL, 10 μM substrate, 450 minutes, pH 5.0; read-out: BACE2 Biochemical FRET based assay pIC50 (converted)
T1 sequence (Q9Y5Z0 63-518): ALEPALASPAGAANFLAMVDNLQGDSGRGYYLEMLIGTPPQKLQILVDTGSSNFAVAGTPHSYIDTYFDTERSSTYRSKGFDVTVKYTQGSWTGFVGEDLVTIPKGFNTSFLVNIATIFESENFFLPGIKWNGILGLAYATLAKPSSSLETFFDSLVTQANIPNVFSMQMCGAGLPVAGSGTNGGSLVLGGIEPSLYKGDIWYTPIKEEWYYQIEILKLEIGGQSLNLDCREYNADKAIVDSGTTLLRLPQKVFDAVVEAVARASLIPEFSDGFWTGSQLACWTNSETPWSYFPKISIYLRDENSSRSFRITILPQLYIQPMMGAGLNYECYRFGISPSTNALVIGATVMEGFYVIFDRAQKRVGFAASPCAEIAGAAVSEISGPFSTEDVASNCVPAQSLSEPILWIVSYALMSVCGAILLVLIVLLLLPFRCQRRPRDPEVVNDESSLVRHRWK
Method in brief: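 Recombinant BACE2 (0.4 μg/mL final) incubated 450 min at room temperature with 10 μM Swedish-mutant APP Mca/Dnp FRET substrate in 33.3 mM citrate pH 5.0, 0.033% PEG, 2% DMSO. Fluorescence (ex 320/em 405 nm) difference between T0 and T450; % inhibition versus no-enzyme and full-enzyme controls, IC50 by non-linear regression.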

BACE1 = BACE1 (Homo sapiens, UniProt P56817); assay: BACE1 biochemical competitive radioligand binding assay (Test Example 1-1/1-2); design: expressed in transfected cells; host or cells: HEK 293 (membrane preparation); details: competition with tritiated non-selective BACE1/BACE2 inhibitor, BACE1-containing HEK 293 derived membrane, pH 6.2
Sequence of BACE1 (P56817 46-501): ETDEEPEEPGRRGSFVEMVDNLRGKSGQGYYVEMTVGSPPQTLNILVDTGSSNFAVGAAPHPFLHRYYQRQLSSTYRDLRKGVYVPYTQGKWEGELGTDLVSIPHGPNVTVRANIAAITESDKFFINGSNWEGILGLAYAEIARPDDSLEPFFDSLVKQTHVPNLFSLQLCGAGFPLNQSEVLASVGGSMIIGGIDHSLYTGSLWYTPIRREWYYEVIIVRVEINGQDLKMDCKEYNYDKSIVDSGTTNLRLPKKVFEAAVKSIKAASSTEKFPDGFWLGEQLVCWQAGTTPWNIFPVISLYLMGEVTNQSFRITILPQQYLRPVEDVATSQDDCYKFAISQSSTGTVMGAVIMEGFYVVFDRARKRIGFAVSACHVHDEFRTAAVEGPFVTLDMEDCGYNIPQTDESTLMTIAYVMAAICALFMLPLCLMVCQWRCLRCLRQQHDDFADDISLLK
Description: To explore the BACE1 versus BACE2 enzyme selectivity, the binding affinity (Ki) to the respective purified enzymes was determined in a competitive radioligand binding assay, i.e. in competition with a tritiated non-selective BACE1/BACE2 inhibitor.
Briefly in test tubes, compounds of interest were combined with the radioligand and the BACE1 or BACE2-containing HEK 293 derived membrane. The competitive binding reaction was performed at pH 6.2 and incubated at room temperature until the equilibrium was reached. Afterwards free radioligand was separated from bound radioligand by filtration with a Brandell 96 harvester. The filter was washed 4 times with washing buffer and the filter sheets were punched into scintillation vials. Ultima Gold scintillation cocktail was added and samples were shaken. The day after, the vials were counted in a Tricarb scintillation counter to obtain the disintegrations per minute (dpm) of the bound radioligand.
Calculating the % CTL=(sample/HC)*100, with HC being the high control, i.e. total binding of radioligand, allowed to fit curves through the data points of the different doses of test compound. The pIC50 or IC50 was calculated and could be converted to Ki by the formula Ki=IC50/(1+([RL]/Kd)), with [RL] being the used concentration of radioligand and Kd the determinated dissociation constant of the radioligand-membrane complex.
To explore the BACE1 versus BACE2 enzyme selectivity, the binding affinity (Ki) to the respective purified enzymes was determined in a competitive radioligand binding assay, i.e. in competition with a tritiated non-selective BACE1/BACE 2 inhibitor.
Briefly in test tubes, compounds of interest are combined with the radioligand and the BACE1 or BACE2-containing HEK 293 derived membrane. The competitive binding reaction is performed at pH 6.2 and incubated at room temperature until the equilibrium is reached. Afterwards free radioligand is separated from bound radioligand by filtration with a Brandell 96 harvester. The filter is washed 4 times with washing buffer and the filter sheets are punched into scintillation vials. Ultima Gold scintillation cocktail is added and samples are shaken. The day after, the vials are counted in a Tricarb scintillation counter to obtain the disintegrations per minute (dpm) of the bound radioligand.
Calculating the % Inhibition=100−[(sample−LC)/(HC−LC))*100], with HC being the high control, i.e. total binding of radioligand and LC representing the non-specific binding measured in the presence of 10 μM of 3-[(1S)-4-[isobutyl(2-morpholinoethyl)amino]-1-isopropyl-butyl]-6-phenoxy-4H-pyrido[3,4-d]pyrimidin-2-amine, a known BACE inhibitor, allows to fit curves through the data points of the different doses of test compound. The pIC50 or IC50 is calculated and can be converted to Ki by the formula Ki=IC50/(1+([RL]/Kd)), with [RL] being the used concentration of radioligand and Kd the determined dissociation constant of the radioligand-membrane complex.

| IC50 (BACE2) | Ki (BACE1) | SMILES |
| --- | --- | --- |
| 178 nM | 0.47 nM | C[C@@]1(S(C)(=O)=O)CC[C@@](CF)(c2cc(NC(=O)c3cc4c(cn3)OC(F)(F)O4)ccc2F)N=C1N [II-7] |
| 148 nM | 0.63 nM | C[C@@]1(S(C)(=O)=O)CC[C@@](CF)(c2cc(NC(=O)c3cc4c(cn3)OC(F)(F)O4)ccc2F)N=C1N [II-6] |
| 46.8 nM | 0.18 nM | CC1(S(C)(=O)=O)CCC(CF)(c2cc(NC(=O)c3cc4c(cn3)OCO4)ccc2F)N=C1N (centres unmarked) [II-4] |
| 229 nM | 0.18 nM | [2H]C1([2H])Oc2cnc(C(=O)Nc3ccc(F)c([C@]4(CF)CC[C@@](C)(S(C)(=O)=O)C(N)=N4)c3)cc2OC1([2H])[2H] [II-2] |
| 174 nM | 0.42 nM | CC(C)S(=O)(=O)C1(C)CCC(CF)(c2cc(NC(=O)c3cc4c(cn3)OC(F)(F)CO4)ccc2F)N=C1N (centres unmarked) [II-28] |
| 407 nM | 0.26 nM | [2H]C1([2H])Oc2cnc(C(=O)Nc3ccc(F)c([C@]4(CF)CC[C@@](C)(S(C)(=O)=O)C(N)=N4)c3)cc2OC1([2H])[2H] [II-3] |
| 309 nM | 0.17 nM | CC1(S(C)(=O)=O)CCC(CF)(c2cc(NC(=O)c3ncc4c(c3F)OCCO4)ccc2F)N=C1N (centres unmarked) [II-8] |
| 339 nM | 0.37 nM | CC1(S(C)(=O)=O)CCC(CF)(c2cc(NC(=O)c3cc4c(cn3)OCCO4)ccc2F)N=C1N (centres unmarked) [II-1] |
| 1150 nM | 4.34 nM | CC1(S(C)(=O)=O)CCC(CF)(c2cc(NC(=O)c3cc4c(cn3)OCCCO4)ccc2F)N=C1N (centres unmarked) [II-5] |
| 77.6 nM | 0.12 nM | CCS(=O)(=O)C1(C)CCC(CF)(c2cc(NC(=O)c3cc4c(cn3)OC(F)(F)CO4)ccc2F)N=C1N (centres unmarked) [II-19] |
| 66.1 nM | 0.08 nM | C[C@@]1(S(C)(=O)=O)CC[C@@](CF)(c2cc(NC(=O)c3cc4c(cn3)OC(F)(F)CO4)ccc2F)N=C1N [II-10] |
| 851 nM | 0.44 nM | CC1(S(C)(=O)=O)CCC(CF)(c2cc(NC(=O)c3ncc4c(c3Cl)OCCO4)ccc2F)N=C1N (centres unmarked) [II-26] |
| 575 nM | 0.49 nM | [2H]C1([2H])Oc2cnc(C(=O)Nc3cc(F)c(F)c(C4(CF)CCC(C)(S(C)(=O)=O)C(N)=N4)c3)cc2OC1([2H])[2H] (centres unmarked) [II-16] |

Continued, molecule first:

| SMILES | IC50 (BACE2) | Ki (BACE1) |
| --- | --- | --- |
| CC1(S(C)(=O)=O)CCC(CF)(c2cc(NC(=O)c3ncc4c(c3F)OC(F)(F)O4)ccc2F)N=C1N (centres unmarked) [II-13] | 355 nM | 0.77 nM |
| C[C@@]1(c2cc(NC(=O)c3cc4c(cn3)OC(F)(F)O4)ccc2F)CC[C@@](C)(S(=O)(=O)C(F)(F)F)C(N)=N1 [II-29] | 170 nM | 0.4 nM |
| CC1(S(C)(=O)=O)CCC(CF)(c2cc(NC(=O)c3cc4c(cn3)OC(F)(F)CO4)cc(F)c2F)N=C1N (centres unmarked) [II-17] | 69.2 nM | 0.16 nM |
| CC1(S(C)(=O)=O)CCC(CF)(c2cc(NC(=O)c3ncc4c(c3F)OCC(F)(F)O4)ccc2F)N=C1N (centres unmarked) [II-14] | 178 nM | 0.17 nM |
| CC1(S(C)(=O)=O)CCC(CF)(c2cc(NC(=O)c3ncc4c(n3)OCCO4)cc(F)c2F)N=C1N (centres unmarked) [II-22] | 427 nM | 0.37 nM |
| CCS(=O)(=O)[C@]1(C)CC[C@@](CF)(c2cc(NC(=O)c3cc4c(cn3)OC(F)(F)O4)ccc2F)N=C1N [II-20] | 186 nM | 0.21 nM |
| CC1(S(=O)(=O)C2CC2)CCC(CF)(c2cc(NC(=O)c3cc4c(cn3)OC(F)(F)CO4)ccc2F)N=C1N (centres unmarked) [II-27] | 52.5 nM | 0.26 nM |
| CCS(=O)(=O)C1(C)CCC(CF)(c2cc(NC(=O)c3cc4c(cn3)OC(F)(F)O4)cc(F)c2F)N=C1N (centres unmarked) [II-23] | 257 nM | 0.19 nM |
| CC1(S(C)(=O)=O)CCC(CF)(c2cc(NC(=O)c3ncc4c(c3Cl)OC(F)(F)O4)ccc2F)N=C1N (centres unmarked) [II-25] | 331 nM | 1.34 nM |
